The results in this text go back to ChEMBL document CHEMBL1143491, “Pentacyclic triterpenes. Part 1: the first examples of naturally occurring pentacyclic triterpenes as a new class of inhibitors of glycogen phosphorylases” (Bioorg Med Chem Lett, 2005).

For this experiment, the target named is T1, Glycogen phosphorylase, liver form (Rattus norvegicus, UniProt P09811).
T1 sequence (P09811 whole entry): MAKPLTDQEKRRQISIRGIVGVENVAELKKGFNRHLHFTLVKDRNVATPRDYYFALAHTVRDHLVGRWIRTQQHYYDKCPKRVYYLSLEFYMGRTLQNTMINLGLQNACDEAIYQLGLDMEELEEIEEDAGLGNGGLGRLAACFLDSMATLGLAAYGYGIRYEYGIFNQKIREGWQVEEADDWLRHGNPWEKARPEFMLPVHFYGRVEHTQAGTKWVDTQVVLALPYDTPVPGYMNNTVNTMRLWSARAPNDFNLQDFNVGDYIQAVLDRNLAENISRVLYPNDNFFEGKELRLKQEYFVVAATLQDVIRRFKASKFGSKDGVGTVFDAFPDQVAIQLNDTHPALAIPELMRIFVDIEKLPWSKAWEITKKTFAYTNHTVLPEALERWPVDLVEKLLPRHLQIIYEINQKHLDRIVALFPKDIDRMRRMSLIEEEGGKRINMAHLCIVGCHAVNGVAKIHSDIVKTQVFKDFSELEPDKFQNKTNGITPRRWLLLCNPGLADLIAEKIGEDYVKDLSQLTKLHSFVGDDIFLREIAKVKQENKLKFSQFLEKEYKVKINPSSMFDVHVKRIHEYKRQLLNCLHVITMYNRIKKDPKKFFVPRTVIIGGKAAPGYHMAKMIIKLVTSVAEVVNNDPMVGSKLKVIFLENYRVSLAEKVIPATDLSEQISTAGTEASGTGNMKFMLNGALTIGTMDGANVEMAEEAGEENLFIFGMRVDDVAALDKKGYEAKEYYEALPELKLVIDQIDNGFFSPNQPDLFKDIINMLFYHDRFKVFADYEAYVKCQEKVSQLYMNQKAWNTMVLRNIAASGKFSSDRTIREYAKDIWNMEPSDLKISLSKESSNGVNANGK
Briefly: Inhibitory concentration against rat liver glycogen phosphorylase.
As to `C[C@H]1[C@H](C)CC[C@]2(C(=O)O)CC[C@]3(C)C(=CC[C@@H]4[C@@]5(C)C[C@@H](O)[C@H](O)C(C)(C)[C@@H]5CC[C@]43C)[C@H]12` [COROSOLIC ACID], half-maximal inhibition (IC50) required 101 µM.
For `CC1(C)CC[C@]2(C(=O)O)CC[C@]3(C)C(=CC[C@@H]4[C@@]5(C)C[C@@H](O)[C@H](O)C(C)(C)[C@@H]5CC[C@]43C)[C@@H]2C1` [MASLINIC ACID] the value was 99 µM; for `Cn1c(=O)c2c(ncn2C)n(C)c1=O` [CAFFEINE], 648 µM.
